How the values were obtained:
Conditions in all cases: Compound concentration 1000.0 nM
[1] = molecular target: Death-associated protein kinase 1 (Homo sapiens) (UniProt P53355)
[2] = molecular target: Casein kinase I isoform delta (Homo sapiens) (UniProt P48730)
[3] = molecular target: Serine/threonine-protein kinase 32B (Homo sapiens) (UniProt Q9NY57)
[4] = test system: Epidermal growth factor receptor (Homo sapiens), P00533 [UNDEFINED MUTATION]
[5] = molecular target: T1, Tyrosine-protein kinase Mer (Homo sapiens) (UniProt Q12866)
T1 sequence (whole entry): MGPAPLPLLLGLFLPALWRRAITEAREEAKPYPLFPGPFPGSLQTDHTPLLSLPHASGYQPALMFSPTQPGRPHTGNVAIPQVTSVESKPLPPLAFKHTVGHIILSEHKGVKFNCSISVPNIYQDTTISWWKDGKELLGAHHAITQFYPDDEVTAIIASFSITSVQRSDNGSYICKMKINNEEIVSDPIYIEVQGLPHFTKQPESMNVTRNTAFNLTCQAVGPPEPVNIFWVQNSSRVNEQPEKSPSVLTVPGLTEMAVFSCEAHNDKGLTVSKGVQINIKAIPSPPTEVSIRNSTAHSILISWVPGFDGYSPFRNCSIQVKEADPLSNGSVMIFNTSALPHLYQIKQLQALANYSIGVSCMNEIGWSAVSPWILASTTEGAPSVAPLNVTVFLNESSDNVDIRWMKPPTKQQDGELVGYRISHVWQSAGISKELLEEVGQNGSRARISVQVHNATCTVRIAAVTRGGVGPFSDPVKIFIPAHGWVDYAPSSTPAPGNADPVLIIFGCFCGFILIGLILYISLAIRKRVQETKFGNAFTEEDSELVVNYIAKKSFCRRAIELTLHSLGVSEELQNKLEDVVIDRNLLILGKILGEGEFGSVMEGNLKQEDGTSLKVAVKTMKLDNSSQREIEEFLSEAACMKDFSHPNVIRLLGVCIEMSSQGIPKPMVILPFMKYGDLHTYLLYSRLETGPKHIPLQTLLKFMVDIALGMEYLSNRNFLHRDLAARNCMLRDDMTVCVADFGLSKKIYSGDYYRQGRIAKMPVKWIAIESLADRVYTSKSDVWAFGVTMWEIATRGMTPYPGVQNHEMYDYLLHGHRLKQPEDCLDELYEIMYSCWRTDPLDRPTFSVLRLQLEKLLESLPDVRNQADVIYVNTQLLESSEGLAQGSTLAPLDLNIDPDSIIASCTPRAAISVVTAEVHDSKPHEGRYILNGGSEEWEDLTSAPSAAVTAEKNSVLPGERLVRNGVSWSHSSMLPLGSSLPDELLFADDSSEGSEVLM

[6] = molecular target: Calcium/calmodulin-dependent protein kinase type 1B (Homo sapiens) (UniProt Q6P2M8)
[7] = test system: Epidermal growth factor receptor (Homo sapiens), P00533 [G719S]
[8] = molecular target: Insulin-like growth factor 1 receptor (Homo sapiens) (UniProt P08069)
[9] = test system: Phosphatidylinositol 4,5-bisphosphate 3-kinase catalytic subunit alpha isoform (Homo sapiens), P42336 [E542K]
[10] = molecular target: Serine/threonine-protein kinase Nek5 (Homo sapiens) (UniProt Q6P3R8)
[11] = molecular target: Serine/threonine-protein kinase RIO3 (Homo sapiens) (UniProt O14730)
[12] = molecular target: Dual specificity tyrosine-phosphorylation-regulated kinase 1A (Homo sapiens) (UniProt Q13627)
[13] = molecular target: Insulin receptor-related protein (Homo sapiens) (UniProt P14616)
[14] = molecular target: Ribosomal protein S6 kinase alpha-4 (Homo sapiens) (UniProt O75676)
[15] = molecular target: Calcium/calmodulin-dependent protein kinase type II subunit gamma (Homo sapiens) (UniProt Q13555)

Measured: residual activity

Insulin-like growth factor 1 receptor (Homo sapiens), sequence (P08069 31-736 limits assumed): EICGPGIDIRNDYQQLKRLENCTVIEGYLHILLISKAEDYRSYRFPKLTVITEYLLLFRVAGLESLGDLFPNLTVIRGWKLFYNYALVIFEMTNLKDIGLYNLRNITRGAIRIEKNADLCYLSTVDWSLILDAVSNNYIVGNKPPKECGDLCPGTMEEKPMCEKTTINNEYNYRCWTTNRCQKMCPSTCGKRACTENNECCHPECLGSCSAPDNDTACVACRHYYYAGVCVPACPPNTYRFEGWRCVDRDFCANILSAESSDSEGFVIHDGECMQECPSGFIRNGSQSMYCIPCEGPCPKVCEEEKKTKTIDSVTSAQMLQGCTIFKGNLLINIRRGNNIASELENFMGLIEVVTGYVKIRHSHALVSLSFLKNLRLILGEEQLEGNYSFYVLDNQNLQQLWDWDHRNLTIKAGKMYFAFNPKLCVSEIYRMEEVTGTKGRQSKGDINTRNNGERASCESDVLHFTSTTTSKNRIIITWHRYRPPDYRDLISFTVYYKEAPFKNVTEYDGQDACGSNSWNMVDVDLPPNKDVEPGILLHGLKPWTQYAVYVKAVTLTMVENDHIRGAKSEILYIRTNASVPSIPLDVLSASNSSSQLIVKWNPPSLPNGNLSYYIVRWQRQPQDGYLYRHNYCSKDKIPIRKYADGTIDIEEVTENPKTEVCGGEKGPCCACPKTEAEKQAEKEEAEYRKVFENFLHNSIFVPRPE
Insulin-like growth factor 1 receptor (Homo sapiens), sequence (P08069 741-1367 limits assumed): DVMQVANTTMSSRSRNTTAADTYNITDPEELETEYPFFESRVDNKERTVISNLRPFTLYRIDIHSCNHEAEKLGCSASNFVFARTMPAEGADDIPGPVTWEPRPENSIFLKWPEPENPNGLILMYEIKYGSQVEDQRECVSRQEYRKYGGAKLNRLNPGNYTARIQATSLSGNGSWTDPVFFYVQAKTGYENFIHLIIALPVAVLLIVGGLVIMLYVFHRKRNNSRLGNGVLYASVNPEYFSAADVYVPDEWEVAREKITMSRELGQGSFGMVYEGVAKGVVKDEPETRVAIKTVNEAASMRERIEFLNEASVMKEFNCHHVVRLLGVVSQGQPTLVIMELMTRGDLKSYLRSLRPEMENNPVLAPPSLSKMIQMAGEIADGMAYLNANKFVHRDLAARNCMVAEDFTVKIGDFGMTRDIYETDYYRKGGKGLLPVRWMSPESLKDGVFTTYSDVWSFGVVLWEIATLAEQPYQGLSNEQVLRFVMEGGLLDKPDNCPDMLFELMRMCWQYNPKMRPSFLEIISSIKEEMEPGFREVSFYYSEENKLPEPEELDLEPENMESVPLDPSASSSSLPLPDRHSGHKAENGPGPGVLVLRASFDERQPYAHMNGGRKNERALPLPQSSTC
Casein kinase I isoform delta (Homo sapiens), sequence (P48730 whole entry, looked up, canonical isoform): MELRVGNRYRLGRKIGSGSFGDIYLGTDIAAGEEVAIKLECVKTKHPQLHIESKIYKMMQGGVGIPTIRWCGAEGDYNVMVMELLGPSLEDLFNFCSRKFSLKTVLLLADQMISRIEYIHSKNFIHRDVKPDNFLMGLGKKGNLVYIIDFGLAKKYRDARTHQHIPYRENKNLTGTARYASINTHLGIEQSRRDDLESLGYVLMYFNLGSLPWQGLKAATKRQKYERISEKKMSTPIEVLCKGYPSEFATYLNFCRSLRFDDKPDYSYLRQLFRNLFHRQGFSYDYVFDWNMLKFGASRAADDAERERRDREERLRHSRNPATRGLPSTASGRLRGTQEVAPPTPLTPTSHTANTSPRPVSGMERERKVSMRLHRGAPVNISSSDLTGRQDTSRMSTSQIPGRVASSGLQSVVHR
Serine/threonine-protein kinase 32B (Homo sapiens), sequence (Q9NY57 whole entry): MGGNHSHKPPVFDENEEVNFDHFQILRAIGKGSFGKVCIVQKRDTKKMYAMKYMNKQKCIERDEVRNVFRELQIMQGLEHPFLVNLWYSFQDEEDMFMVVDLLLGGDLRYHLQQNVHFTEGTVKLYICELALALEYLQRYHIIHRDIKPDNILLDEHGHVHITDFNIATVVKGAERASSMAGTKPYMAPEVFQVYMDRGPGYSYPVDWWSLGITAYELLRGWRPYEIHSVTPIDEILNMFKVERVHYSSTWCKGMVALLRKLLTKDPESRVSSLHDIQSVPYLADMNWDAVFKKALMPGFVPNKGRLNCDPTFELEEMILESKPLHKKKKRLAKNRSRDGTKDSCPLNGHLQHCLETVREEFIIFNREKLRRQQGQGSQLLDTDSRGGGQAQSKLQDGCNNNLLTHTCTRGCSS
Phosphatidylinositol 4,5-bisphosphate 3-kinase catalytic subunit alpha isoform (Homo sapiens), P42336 [E542K], sequence (P42336 whole entry E542K, canonical isoform): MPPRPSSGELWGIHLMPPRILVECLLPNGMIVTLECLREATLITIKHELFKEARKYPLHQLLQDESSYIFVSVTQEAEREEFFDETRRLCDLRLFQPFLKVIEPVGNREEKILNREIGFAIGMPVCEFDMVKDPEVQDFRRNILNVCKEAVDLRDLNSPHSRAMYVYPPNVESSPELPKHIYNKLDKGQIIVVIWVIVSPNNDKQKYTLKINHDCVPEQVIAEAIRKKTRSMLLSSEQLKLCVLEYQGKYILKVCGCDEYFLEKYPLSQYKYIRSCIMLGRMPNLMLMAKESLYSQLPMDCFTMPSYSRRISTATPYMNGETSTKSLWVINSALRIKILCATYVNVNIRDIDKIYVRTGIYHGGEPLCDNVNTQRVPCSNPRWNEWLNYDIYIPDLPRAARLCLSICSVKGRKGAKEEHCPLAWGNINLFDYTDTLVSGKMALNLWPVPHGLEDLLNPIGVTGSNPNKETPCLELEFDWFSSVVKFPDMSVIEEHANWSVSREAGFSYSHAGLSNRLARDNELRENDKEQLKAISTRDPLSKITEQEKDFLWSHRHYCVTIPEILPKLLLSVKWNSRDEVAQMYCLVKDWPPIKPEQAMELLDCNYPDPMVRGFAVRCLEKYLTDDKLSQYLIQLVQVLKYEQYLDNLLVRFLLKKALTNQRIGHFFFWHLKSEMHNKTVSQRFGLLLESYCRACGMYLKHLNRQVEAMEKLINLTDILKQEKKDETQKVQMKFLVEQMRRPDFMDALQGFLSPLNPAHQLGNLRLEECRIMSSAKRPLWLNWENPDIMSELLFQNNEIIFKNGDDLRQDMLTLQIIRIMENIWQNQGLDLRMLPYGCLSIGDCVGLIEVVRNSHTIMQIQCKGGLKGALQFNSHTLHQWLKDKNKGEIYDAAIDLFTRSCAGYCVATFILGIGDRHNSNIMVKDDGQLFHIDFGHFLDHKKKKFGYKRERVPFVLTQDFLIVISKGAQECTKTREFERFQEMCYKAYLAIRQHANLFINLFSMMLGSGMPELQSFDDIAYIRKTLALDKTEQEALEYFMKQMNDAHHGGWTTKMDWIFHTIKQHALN
Serine/threonine-protein kinase RIO3 (Homo sapiens), sequence (O14730 whole entry): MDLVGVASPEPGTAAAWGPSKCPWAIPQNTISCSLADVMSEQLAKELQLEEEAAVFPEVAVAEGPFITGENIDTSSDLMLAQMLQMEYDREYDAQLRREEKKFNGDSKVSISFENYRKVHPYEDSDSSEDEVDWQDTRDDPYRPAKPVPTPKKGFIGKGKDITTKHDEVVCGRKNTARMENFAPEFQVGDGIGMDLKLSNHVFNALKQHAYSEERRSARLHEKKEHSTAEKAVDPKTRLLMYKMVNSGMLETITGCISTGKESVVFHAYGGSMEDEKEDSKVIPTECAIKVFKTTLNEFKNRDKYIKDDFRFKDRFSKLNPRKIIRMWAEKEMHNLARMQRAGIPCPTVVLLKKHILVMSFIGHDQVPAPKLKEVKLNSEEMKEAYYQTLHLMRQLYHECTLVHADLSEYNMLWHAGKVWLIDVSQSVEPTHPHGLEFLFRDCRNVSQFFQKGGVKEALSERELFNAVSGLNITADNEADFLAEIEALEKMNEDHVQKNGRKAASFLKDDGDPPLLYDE
Serine/threonine-protein kinase Nek5 (Homo sapiens), sequence (Q6P3R8 whole entry): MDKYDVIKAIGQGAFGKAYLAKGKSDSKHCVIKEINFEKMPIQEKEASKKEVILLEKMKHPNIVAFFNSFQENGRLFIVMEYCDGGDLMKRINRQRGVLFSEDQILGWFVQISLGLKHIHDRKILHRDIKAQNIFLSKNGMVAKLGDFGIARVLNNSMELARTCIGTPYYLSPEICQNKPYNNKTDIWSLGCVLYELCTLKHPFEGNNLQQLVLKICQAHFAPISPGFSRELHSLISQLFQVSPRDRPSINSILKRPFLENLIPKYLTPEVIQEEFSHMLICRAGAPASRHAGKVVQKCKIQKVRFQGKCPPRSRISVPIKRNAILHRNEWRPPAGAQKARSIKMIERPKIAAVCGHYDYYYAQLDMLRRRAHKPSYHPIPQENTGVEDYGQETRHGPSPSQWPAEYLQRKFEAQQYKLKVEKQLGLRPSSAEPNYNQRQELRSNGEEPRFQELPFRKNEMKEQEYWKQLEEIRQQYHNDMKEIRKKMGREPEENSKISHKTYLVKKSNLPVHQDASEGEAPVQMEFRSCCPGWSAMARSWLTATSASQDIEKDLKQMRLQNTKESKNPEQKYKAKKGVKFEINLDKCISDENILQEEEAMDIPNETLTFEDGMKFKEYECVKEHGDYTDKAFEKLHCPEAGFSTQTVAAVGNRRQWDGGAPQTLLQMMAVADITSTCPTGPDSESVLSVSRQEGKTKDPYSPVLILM
Calcium/calmodulin-dependent protein kinase type 1B (Homo sapiens), sequence (Q6P2M8 whole entry): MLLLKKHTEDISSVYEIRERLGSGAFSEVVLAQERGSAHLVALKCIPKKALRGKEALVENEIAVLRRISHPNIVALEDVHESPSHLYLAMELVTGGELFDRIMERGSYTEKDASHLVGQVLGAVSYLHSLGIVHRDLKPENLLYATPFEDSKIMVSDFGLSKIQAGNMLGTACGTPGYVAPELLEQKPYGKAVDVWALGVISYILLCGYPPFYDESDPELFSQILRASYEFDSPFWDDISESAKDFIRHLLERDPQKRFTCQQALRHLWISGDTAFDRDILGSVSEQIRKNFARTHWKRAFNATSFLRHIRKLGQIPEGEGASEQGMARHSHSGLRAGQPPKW

Cc1nc(C2CCN(C(=O)c3ccc(OC(F)(F)F)cc3N)CC2)c2ncc(N3CCN(C)CC3)cc2n1 [BAY-693]
inactive: [1] 95% | [2] 83% | [3] 90% | [4] 91% | [5] 87% | [6] 100% | [7] 100% | [8] 91% | [9] 92% | [10] 100% | [11] 87% | [12] 100% | [13] 100% | [14] 100% | [15] 100%

CN1CCN(c2cnc3c(C4CCN(C(=O)c5ccc(OC(F)(F)F)cc5N)CC4)ncnc3c2)CC1 [BAY-885]
inactive: [1] 100% | [2] 100% | [3] 87% | [4] 77% | [5] 75% | [6] 100% | [7] 100% | [8] 100% | [9] 100% | [10] 100% | [11] 97% | [12] 100% | [13] 100% | [14] 100% | [15] 100%

Source: ChEMBL document CHEMBL4507268 (2021)
